Reference: the supplement of paper PMC8837787

Test system: Saccharomyces cerevisiae ABC16-Green Monster
Experiment: growth inhibition at single dose (up to 150 µM), below the 70% cut-off for dose-response; higher = more potent
Conditions: 18 h; 30 °C; YPD
Procedure, shortened: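 The entry is percent growth inhibition of drug-sensitive S. cerevisiae ABC16-Green Monster cells. After overnight growth in YPD at 30 °C, cells were diluted to OD600 0.1–0.2 and exposed to each library compound at 150 µM in 200 µl per well, in biological duplicates with untreated cultures beside them, and OD600 was read at 0 h and after 18 h at 30 °C. Any compound under 70% in both replicates was not carried to dose-response.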

CCOc1cc2c(cc1OCC)C(c1cc(Cl)ccc1O)NCC2 (configuration not stated)
growth inhibition at single dose: < 70%

Cc1cc(=O)n2nc(CSc3nc4ccc(Cl)cc4c(=O)n3CC(C)C)sc2n1
growth inhibition at single dose: < 70%

CS(=O)(=O)c1ccccc1C(=O)N(Cc1ccccc1)c1ccccc1
growth inhibition at single dose: < 70%

O=C(NC1CC1)c1ccc(CN(C2CC2)S(=O)(=O)c2ccccc2F)cc1
growth inhibition at single dose: < 70%

O=C(Cc1ccccc1)NC(c1ccc(Cl)cc1)c1c(O)ccc2ccccc12 (configuration not stated)
growth inhibition at single dose: < 70%

CN1CCCN(C(c2ccccc2)c2ccc(Cl)cc2)CC1 (configuration not stated)
growth inhibition at single dose: < 70%

CS(=O)(=O)N1CCC(CCn2nc(Cc3cccc4ccccc34)c3c(N)ncnc32)CC1
growth inhibition at single dose: < 70%

Cc1cc(C(=O)Nc2cnn(Cc3ccc(Cl)cc3Cl)c2)no1
growth inhibition at single dose: < 70%

Nc1nnc(SCc2c(F)cccc2Cl)[nH]1
growth inhibition at single dose: < 70%

COc1ccc(CN2CCN(C(=O)c3ccc(-n4cccn4)cc3)CC2)cc1F
growth inhibition at single dose: < 70%

CC(C)c1nc(N2CCN(CC(=O)N3CCCC3)CC2)c(C#N)c2c1CCC2
growth inhibition at single dose: < 70%

COc1ccc(CN=C2NN=C(c3cc4ccccc4o3)CS2)cc1
growth inhibition at single dose: < 70%

COc1ccc(CCn2c(=N)c(C(=O)NCc3cccnc3)cc3c(=O)n4cccc(C)c4nc32)cc1
growth inhibition at single dose: < 70%

N#C/C(C(=O)c1ccc([N+](=O)[O-])s1)=C1\Nc2ccccc2S1
growth inhibition at single dose: < 70%

CNc1snc(C)c1C(=O)N(C)Cc1ccccc1OC(F)(F)F
growth inhibition at single dose: < 70%

CCN(CC)c1ccc(NC(=O)c2cccs2)cc1
growth inhibition at single dose: < 70%

CCOc1ccc(CCNC(=O)c2cccs2)cc1OCC
growth inhibition at single dose: < 70%

Cc1ccc(N2C3c4ccccc4N(S(=O)(=O)c4ccc(C)cc4)C2c2ccccc2N3S(=O)(=O)c2ccc(C)cc2)cc1
growth inhibition at single dose: < 70%

CCOC(=O)c1cnc2ccc(OC)cc2c1NCc1ccccc1
growth inhibition at single dose: < 70%

CCCCN(CCCC)c1c(C#N)cc(S(=O)(=O)Nc2ccccc2)cc1C#N
growth inhibition at single dose: < 70%

CCN(CC)CCN1COc2c(cc(Cl)c3cccnc23)C1
growth inhibition at single dose: < 70%

CCOC(=O)c1sc(N)c(C#N)c1COC(=O)c1c(CC)noc1C
growth inhibition at single dose: < 70%

Oc1ccc2ccccc2c1CNc1nc2ccccc2[nH]1
growth inhibition at single dose: < 70%

COc1ccc(NC(=O)c2ccoc2)cc1S(=O)(=O)Nc1ccc(Br)cc1
growth inhibition at single dose: < 70%

COc1cccc2c(C)nc(N=C(N)N)nc12
growth inhibition at single dose: < 70%

Cc1cc(C)cc(Nc2cc(C)nc3nc(C(F)(F)F)nn23)c1
growth inhibition at single dose: < 70%

CC(=O)Nc1ccc(NC(=O)c2cc(-c3cc(Cl)ccc3O)[nH]n2)cc1
growth inhibition at single dose: < 70%

O=C(C1CCN(c2nnc(-n3cccc3)s2)CC1)N1CCC(Cc2ccccc2)CC1
growth inhibition at single dose: < 70%

CN1CCCC1CCO[C@](C)(c1ccccc1)c1ccc(Cl)cc1 (some centres not stated)
growth inhibition at single dose: < 70%

CC(C)n1ncc2cc(C(=O)Nc3nc(-c4ccccn4)cs3)cnc21
growth inhibition at single dose: < 70%

Cc1cc(=O)nc(N/N=C/c2c(C)nn(-c3ccccc3Cl)c2Cl)[nH]1
growth inhibition at single dose: < 70%

O=C1CC(O)(C(F)(F)C(F)(F)F)Oc2ccccc21 (configuration not stated)
growth inhibition at single dose: < 70%

Cc1sc(NC(=O)c2ccccc2)c(C(c2cccs2)N2CCN(c3ccccc3)CC2)c1C (configuration not stated)
growth inhibition at single dose: < 70%

CC(C)(C)n1nc(-c2ccccc2)c2c(N)ncnc21
growth inhibition at single dose: < 70%

CC1COC2(CCN(c3nc(=O)c4cc(C(F)(F)F)cc([N+](=O)[O-])c4s3)CC2)O1 (configuration not stated)
growth inhibition at single dose: < 70%

Brc1cnc2nc(-c3ccccc3)[nH]c2c1
growth inhibition at single dose: < 70%

CCOC(=O)c1cn(CC)c2cc(N3CCCCC3)c(F)cc2c1=O
growth inhibition at single dose: < 70%

CC(C)n1ncc2cc(C(=O)Nc3nc4c(s3)CCCC4)cnc21
growth inhibition at single dose: < 70%

Cc1ccc(CN2CCC(C(=O)Nc3ccc(-c4cc5ccccc5[nH]4)cc3)CC2)o1
growth inhibition at single dose: < 70%

COc1cc(NC(=O)COc2ccc3[nH]c4ccccc4c(=O)c3c2)c(OC)cc1Cl
growth inhibition at single dose: < 70%

Cc1ccccc1-n1nnc(C(=O)Nc2cccc(Br)c2)c1N
growth inhibition at single dose: < 70%

CCOc1ccccc1NC(C)C(=O)Nc1cc(C(F)(F)F)ccc1N1CCOCC1 (configuration not stated)
growth inhibition at single dose: < 70%

O=C(NC1CC1)c1ccc(CN(Cc2ccco2)Cc2nc(-c3ccc(F)cc3)no2)cc1
growth inhibition at single dose: < 70%

Cc1ccc(NC(=O)c2cc(S(=O)(=O)NC(C)(C)C)ccc2C)nc1
growth inhibition at single dose: < 70%

CCC(=O)Nc1nnc(Cc2ccc(OC)c(OC)c2)s1
growth inhibition at single dose: < 70%

COc1cc(C(=O)Nc2ccc(-c3nc4ccccc4[nH]3)cc2)cc(OC)c1OC
growth inhibition at single dose: < 70%

Cc1ccc2ncnc(NCCc3ccccc3)c2c1
growth inhibition at single dose: < 70%

Cn1c(C(=O)c2cccc3ccccc23)nc2ccccc21
growth inhibition at single dose: < 70%

Cc1cc(NCCN2CCCCC2)c2ccc3ccccc3c2n1
growth inhibition at single dose: < 70%

CCOC(=O)c1c[nH]c2cc(Cl)cc(Cl)c2c1=O
growth inhibition at single dose: < 70%

COc1cc2cc(C(=O)Nc3ccccc3)c(N)nc2cc1OC
growth inhibition at single dose: < 70%

O=S(=O)(c1ccc(Cl)c(N=C2NN=C(c3c[nH]c4ccccc34)CS2)c1)N1CCOCC1
growth inhibition at single dose: < 70%

N#CCc1c(C#N)c(N)nc(Nc2ccc(F)cc2F)c1C#N
growth inhibition at single dose: < 70%

CC(C)(C)C(=O)N(CCCCCCN1C[C@H](O)[C@@H](O)[C@H](O)[C@H]1CO)C1CCCCCC1
growth inhibition at single dose: < 70%

N#CCN(CCCCN1CCN(c2ccc(F)cc2)CC1)C(=O)OCc1ccccc1
growth inhibition at single dose: < 70%

Nc1nccnc1C(=O)Nc1ccc(C23CC4CC(CC(C4)C2)C3)cc1
growth inhibition at single dose: < 70%

COc1ccc(CCNc2ncnc3sc(C)cc23)cc1OC
growth inhibition at single dose: < 70%

COc1cccc(O)c1CN1CCC2(CCCN(Cc3ccc(F)cc3)C2)C1 (configuration not stated)
growth inhibition at single dose: < 70%

Oc1c(CN2CCN(c3ccccc3F)CC2)cc(Br)c2cccnc12
growth inhibition at single dose: < 70%

CCOc1ccc2nc(C)cc(Nc3ccc(N(C)C)cc3)c2c1
growth inhibition at single dose: < 70%

c1cc(C2=NCCN2)cc(-c2cc(-c3ccc(C4=NCCN4)cc3)no2)c1
growth inhibition at single dose: < 70%

CC(C)CN(C(=O)c1ccc(N2CCCC2)c([N+](=O)[O-])c1)c1nc2ccccc2s1
growth inhibition at single dose: < 70%
